According to US6015838A, “Aqueous film-forming foam compositions” (3M Innovative Properties Company, priority 1996, dated 2000):
“Also recorded” adds a separate entry of the source.

Columns and labels:
[1] = Stability of esters to concentrated aqueous ammonium hydroxide; format: physicochemical; conditions: stirred 2 days (comparable conditions)
Source text: The acrylate and methacrylate esters from Examples D1-D11 were fully recoverable with essentially no degradation after being stirred with concentrated aqueous ammonium hydroxide for a period of 2 days.

rats [2] = assay: Acute LD50, one-time feeding study of rats; format: in vivo, rat
Description: Acute LD50 measurements for a one-time feeding study of rats were determined over a 21 day period for both the a-branched perfluorocarboxylate salt, C7 F15 CF(CF3)COO^- NH4^+, and its straight chain isomer, CF3 (CF2)8 COO^- NH4^+.

[3] = literature; cited from earlier work
[4] = Thermal degradation in aqueous media; format: physicochemical
Description: The thermal degradation of an aqueous a-branched perfluoroalkylcarbonyl fluoride and the characterization of the products produced from the degradation were carried out using the following procedure. 8 g of C7 F15 CF(CF3)COF (made as in Example A4) was dispersed in deionized water and was refluxed for 2 hours. 5.7 g of volatile degradation products were then collected by azeotropic distillation using a Dean-Stark apparatus.
The thermal degradation of C7 F15 CF(CF3)COF (from Example A4) dispersed in water was also carried out by heating the aqueous mixture for several hours at approximately 80° C.

[5] = Emulsion polymerization of hexafluoropropylene and vinylidene fluoride with surfactant as emulsifier; conditions: 3500 ppm emulsifier, 78° C.
Source text: The following procedure was used to evaluate C7 F15 CF(CF3)COO^- NH4^+ (from Ex. M1) as an emulsifier to copolymerize hexafluoropropylene (HFP) and vinylidene fluoride.
A 1 gallon, vertically agitated stainless steel reactor with pressure and temperature controls was evacuated and twice purged with nitrogen. Using an isolated vacuum, a solution comprised of 2 g of ammonium persulfate (initiator) and 6 g of dipotassium phosphate dissolved in 2800 g of deionized water was introduced into the reactor. The remaining vacuum on the reactor was vented with nitrogen, and the solution was degassed twice under agitation using alternate vacuum and nitrogen purges. […]
The resulting latex polymer was drained from the reactor, and percent solids of the latex was determined to be 25% by weight as measured by drying 10 g of latex in a forced air oven for 16 hours at 105° C.
The reactor body was separated from the reactor head, and a visual inspection of the reactor was made to determine the amount of coagulated polymer in the reactor (the amount should be minimal in a good polymerization reaction). A qualitative rating was assessed, ranging from "none" to "little" to "some." […]
Particle size in the latex was determined using […] on a Coulter sub-micron particle size analyzer. […]

[6] = Thermogravimetric analysis of neat perfluorocarboxylate salts; format: physicochemical; conditions: neat salt; for onset temperature of decomposition / temperature for 50% loss / temperature for 90% loss: 10° C./min, nitrogen
Source text: Thermal degradation measurements were made on a series of neat perfluorocarboxylate salts, including several ax-branched open chain structures (Examples N2-N9), a primarily linear open chain structure (Example N10--Fluorad™ FC-143 Fluorochemical Surfactant, commercially available from 3M Company, St. Paul, Minn.), and a closed chain (i.e., cyclic) structure (Example N11--made by the electrochemical fluorination of benzoic acid and hydrolysis in the presence of KOH, as described in U.S. Pat. No. 2,567,011 (Diesslin et al.)).
The perfluorocarboxylate salts were tested using a Perkin-Elmer TGA 7 thermogravimetric analysis apparatus and a salt sample size of approximately 5 mg, a heating rate of 10° C./min, and a nitrogen gas flow rate of 40-45 mL/min. Using the TGA 7 software, the following temperatures were recorded: (1) the onset temperature of decomposition, (2) the temperature at which 50% of the sample weight was lost, and (3) the temperature at which 90% of the sample weight was lost.

rats [7] = assay: Monitoring of volatile degradation products exhaled by a dosed rat (uptake desiccator jar chamber); format: in vivo
Description: Additional biological testing of C7F15 CF(CF3)COO^- NH4^+ in rats was conducted using the following test apparatus. An uptake desiccator jar chamber was designed with top and bottom portions, the top portion equipped with an inlet port, an outlet port, oxygen monitor and pressure gage. An oxygen gas tank supplied oxygen into the inlet port, and the oxygen level in the chamber was maintained at a normal ambient level as measured by the oxygen monitor and pressure gage. The outlet port was connected in series with a carbon dioxide scrubber and particulate filter, which in turn was connected to a loop containing a stainless steel bellows pump operating at about 2 L/min. Most of the gas in the loop was recycled into the inlet port, but about 100 mL/min was directed through a secondary loop to a gas chromatograph equipped with a 0.5 mL gas sampling loop.
A rat dosed at 500 mg/kg was placed in the bottom portion of the chamber, the top portion was attached, and the assembled chamber was placed in an ice-filled pan to allow for the condensation of water. The oxygen flow was started, and the exhaust gases were monitored for the presence of CF3 CF=CF(C6 F13) and C7 F15 CFHCF3, aqueous degradation products of C7 F15 CF(CF3)COOH, using known standards of this olefin and hydride in the gas chromatograph. […] After 24 minutes, one slight chromatographic peak was noted, corresponding to the monohydride. After 92 minutes, the peak became noticeably larger and a second peak formed, corresponding to the olefin.

[8] = Surface tension and critical micelle concentration (CMC) of aqueous surfactant solutions; format: physicochemical; conditions: Table 5; deionized water, at CMC
Source text: Critical Micelle Concentration (CMC): The critical micelle concentration is defined as the concentration at which further surface tension is no longer lowered with increasing levels of surfactant. […] Surface tension is then plotted vs. log concentration and the data points are connected. The resulting curve has a nearly horizontal flat portion at concentrations above the CMC and has a negative steep slope at concentrations below the CMC. The CMC is defined as the lowest surfactant concentration in the horizontal flat portion of the curve.
(§1) Then the critical micelle concentration (CMC) was determined for each surfactant.
as §1

[9] = Storage of 5% aqueous solution at room temperature; format: physicochemical
Description: The α-branched open chain ammonium salt compounds from Examples N3-N6 were dissolved in deionized water at a concentration of 5% by weight (0.5 g ammonium salt in 10 mL water) and were stored at room temperature.

C=CC(=O)OCCOC(=O)C(F)(F)C(F)(F)C(F)(F)C(F)(F)C(F)(F)C(F)(F)C(F)(F)F [C7 F15 COOCH2 CH2 OCOCH=CH2]
hydrolytic stability in concentrated aqueous ammonium hydroxide [1]: readily hydrolyzed

O=C(O)C(F)(F)C(F)(F)C(F)(F)C(F)(F)C(F)(F)C(F)(F)C(F)(F)C(F)(F)C(F)(F)F [C9 F19 COO^- NH4^+, CF3 (CF2)8 COO^- NH4^+, reference compound]
toxicity relative to the α-branched isomer (rats [2]; LD50 comparison): ca. 10 times
acute toxicity (in words) (rats [2]; one-time feeding, rats): moderately toxic
wasting syndrome (rats [2]; one-time feeding, rats): Wasting syndrome was observed
toxicity (in words) [3]: moderately toxic

O=C(F)C(F)(C(F)(F)F)C(F)(F)C(F)(F)C(F)(F)C(F)(F)C(F)(F)C(F)(F)C(F)(F)F (centres unmarked) [Example A1, C7 F15 CF(CF3)COF]
degradation products (in words) ([4]; aqueous mixture heated several hours at approximately 80° C.): The same volatile products were formed
olefin in degradation products ([4]; dispersed in deionized water, refluxed 2 hours, C6 F13 CF=CFCF3): 15%
monohydride in degradation products ([4]; dispersed in deionized water, refluxed 2 hours, C7 F15 CFHCF3): 85%
volatile degradation products collected ([4]; from 8 g, refluxed 2 hours in deionized water): 5.7 g

O=C(O)C(F)(C(F)(F)F)C(F)(F)C(F)(F)C(F)(F)C(F)(F)C(F)(F)C(F)(F)C(F)(F)F (centres unmarked) [Example M1, C7 F15 CF(CF3)COOH]
degradation products (in words) ([4]; aqueous solution, carried out in a similar way): the same monohydride and olefin

O=C(O)C(F)(C(F)(F)F)C(F)(F)C(F)(F)C(F)(F)C(F)(F)C(F)(F)C(F)(F)C(F)(F)F (centres unmarked) [Example M14, C7 F15 CF(CF3)COO^- H4 N^+]
Latex Stability [5]: 0
onset temperature of decomposition [6]: 151 °C
temperature for 50% loss [6]: 163 °C
temperature for 90% loss [6]: 174 °C
time after which rats began regaining weight (rats [2]; one-time feeding, rats): 3 days
time of deaths from toxic doses (rats [2]; one-time feeding, rats): 2 to 3 days
wasting syndrome (rats [2]; one-time feeding, rats): No wasting syndrome was noted
acute toxicity (in words) (rats [2]; one-time feeding, rats, listed as C7 F15 CF(CF3)COO^- NH4^+): relatively low toxicity; also recorded: only slightly toxic
post-exposure toxicity (death) or wasting syndrome (rats [7]; rat dosed at 500 mg/kg): no evidence of toxicity (death) or evidence of wasting syndrome
time at which monohydride peak was noted in exhaust gases (rats [7]; rat dosed at 500 mg/kg): 24 min
time at which second peak (olefin) formed in exhaust gases (rats [7]; rat dosed at 500 mg/kg): 92 min
monohydride and olefin peaks in exhaust gases after 217 minutes (rats [7]; rat dosed at 500 mg/kg, 217 minutes): both peaks became significantly larger
olefin or hydride in exhaust gases, initially (rats [7]; rat dosed at 500 mg/kg, initially): no olefin or hydride were detected
metabolism and elimination (rats [7]; rat, in words): metabolized by the rat to volatile metabolites which were eliminated from the rat via transpiration
Surf. Tens. (surface tension at the CMC) [8]: 16.5 dynes/cm

O=C(O)C(F)(C(F)(F)F)C(F)(F)C(F)(F)C(F)(F)C(F)(F)C(F)(F)F (centres unmarked) [Example M15, C5 F11 CF(CF3)COO^- H4 N^+]
onset temperature of decomposition ([6]; listed as N2): 166 °C
temperature for 50% loss ([6]; listed as N2): 178 °C
temperature for 90% loss ([6]; listed as N2): 188 °C
Surf. Tens. (surface tension at the CMC) [8]: 22.1 dynes/cm

O=C(O)C(F)(C(F)(F)F)C(F)(F)C(F)(F)C(F)(F)C(F)(F)C(F)(F)C(F)(F)F (centres unmarked) [Example M16, C6 F13 CF(CF3)COO^- H4 N^+]
onset temperature of decomposition [6]: 165 °C
temperature for 50% loss [6]: 179 °C
temperature for 90% loss [6]: 193 °C
Surf. Tens. (surface tension at the CMC) [8]: 17.9 dynes/cm

O=C(O)C(F)(C(F)(F)F)C(F)(F)C(F)(F)C(F)(F)C(F)(F)C(F)(F)C(F)(F)C(F)(F)C(F)(F)F (centres unmarked) [Example M17, C8 F17 CF(CF3)COO^- H4 N^+]
onset temperature of decomposition [6]: 142 °C
temperature for 50% loss [6]: 162 °C
temperature for 90% loss [6]: 184 °C
Surf. Tens. (surface tension at the CMC) [8]: 14.7 dynes/cm

O=C(O)C(F)(C(F)(F)F)C(F)(F)C(F)(F)C(F)(F)C(F)(F)C(F)(F)C(F)(F)C(F)(F)C(F)(F)C(F)(F)C(F)(F)F (centres unmarked) [Example M18, C10 F21 CF(CF3)COO^- H4 N^+]
onset temperature of decomposition [6]: 164 °C
temperature for 50% loss [6]: 181 °C
temperature for 90% loss [6]: 188 °C
Surf. Tens. (surface tension at the CMC) [8]: 14.8 dynes/cm

O=C(O)C(F)(C(F)(F)C(F)(F)F)C(F)(F)C(F)(F)C(F)(F)C(F)(F)C(F)(F)C(F)(F)F (centres unmarked) [Example M19, C6 F13 CF(C2 F5)COO^- H4 N^+]
onset temperature of decomposition [6]: 153 °C
temperature for 50% loss [6]: 171 °C
temperature for 90% loss [6]: 188 °C

O=C(O)C(F)(C(F)(F)F)C(F)(F)C(F)(F)C(F)(F)C(F)(F)C(F)(F)F (centres unmarked) [Example M21, C5 F11 CF(CF3)COO^- K^+]
onset temperature of decomposition ([6]; listed as N9): 167 °C
temperature for 50% loss ([6]; listed as N9): 178 °C
temperature for 90% loss (stopped at 85% weight loss) ([6]; stopped at 85% weight loss as remaining salt, KF, is not volatile): 188 °C
Surf. Tens. (surface tension at the CMC) [8]: 22.5 dynes/cm

O=C(O)C(F)(C(F)(F)F)C(F)(F)C(F)(F)C(F)(F)C(F)(F)C(F)(F)F (centres unmarked) [Example M28, C5 F11 CF(CF3)COO^- Na^+]
onset temperature of decomposition ([6]; listed as N8): 236 °C
temperature for 50% loss ([6]; listed as N8): 250 °C
temperature for 90% loss ([6]; listed as N8): 263 °C

O=C(O)C(F)(F)C(F)(F)C(F)(F)C(F)(F)C(F)(F)C(F)(F)C(F)(F)F [FC-143, C7 F15 COO^- H4 N^+]
onset temperature of decomposition [6]: 173 °C
temperature for 50% loss [6]: 188 °C
temperature for 90% loss [6]: 202 °C
degradation over 1 year (in words) [9]: no signs of degradation
Surf. Tens. (surface tension at the CMC) [8]: 21.5 dynes/cm

O=C(O)C1(F)C(F)(F)C(F)(F)C(F)(F)C(F)(F)C1(F)F [reference compound]
onset temperature of decomposition [6]: 100 °C
temperature for 50% loss [6]: 110 °C
temperature for 90% loss [6]: 120 °C
